What was measured:
[1] = target: T1, CtHsp104 (Thermochaetoides thermophila, UniProt G0S4G4, D295A/E296A); assay: X-ray crystal structure, […] Å; assay type: binding; settings: ADP bound in AAA1 and AAA2 active sites; incubated with ADP and AlF3, 3 mM each; pH 5.8
T1 construct: gene CTHT_0022720; full-length, synthetic gene, pET21a, C-terminal His6 tag, E. coli; NTD not visible in the crystal structure

[2] = target: T2, CtHsp104 (Thermochaetoides thermophila, UniProt G0S4G4); assay: coupled ATPase assay (pyruvate kinase / lactate dehydrogenase); assay type: biochemical; settings: 5 mM MgCl2; varying ATP; Hill fit
T2 construct: gene CTHT_0022720; full-length, synthetic gene, pET21a, C-terminal His6 tag, E. coli; NTD not visible in the crystal structure
T2 sequence (G0S4G4 entry or part of it): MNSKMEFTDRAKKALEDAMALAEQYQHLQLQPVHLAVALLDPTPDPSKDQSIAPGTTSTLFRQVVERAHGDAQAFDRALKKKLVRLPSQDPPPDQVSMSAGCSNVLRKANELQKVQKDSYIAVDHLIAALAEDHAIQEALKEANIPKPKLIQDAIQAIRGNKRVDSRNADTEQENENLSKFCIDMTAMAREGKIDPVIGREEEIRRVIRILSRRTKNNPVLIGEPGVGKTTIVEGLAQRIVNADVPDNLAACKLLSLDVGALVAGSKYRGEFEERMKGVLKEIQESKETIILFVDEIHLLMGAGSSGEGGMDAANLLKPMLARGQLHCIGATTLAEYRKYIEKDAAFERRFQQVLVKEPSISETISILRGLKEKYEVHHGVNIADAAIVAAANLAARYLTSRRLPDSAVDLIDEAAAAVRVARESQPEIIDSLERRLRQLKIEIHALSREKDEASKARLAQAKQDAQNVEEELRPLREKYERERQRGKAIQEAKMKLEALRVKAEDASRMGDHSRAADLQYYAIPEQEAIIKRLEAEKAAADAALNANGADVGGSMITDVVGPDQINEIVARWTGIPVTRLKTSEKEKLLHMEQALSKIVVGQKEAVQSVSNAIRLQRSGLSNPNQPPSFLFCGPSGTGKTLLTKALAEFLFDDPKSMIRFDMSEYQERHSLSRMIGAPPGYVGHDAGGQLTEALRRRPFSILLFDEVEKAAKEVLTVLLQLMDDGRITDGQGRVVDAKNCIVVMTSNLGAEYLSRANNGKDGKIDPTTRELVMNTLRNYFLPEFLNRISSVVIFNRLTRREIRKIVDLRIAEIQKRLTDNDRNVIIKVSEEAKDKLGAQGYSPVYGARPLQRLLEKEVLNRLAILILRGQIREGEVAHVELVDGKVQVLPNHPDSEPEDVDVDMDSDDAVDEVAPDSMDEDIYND

[3] = target: T3, ScHsp104 (Saccharomyces cerevisiae, UniProt P31539); assay: as above; assay type: biochemical; settings: 5 mM MgCl2; varying ATP; Hill fit
T3 construct: gene HSP104; cloned from yeast genomic DNA, pET21a, C-terminal His6 tag, E. coli
T3 sequence (P31539 whole entry): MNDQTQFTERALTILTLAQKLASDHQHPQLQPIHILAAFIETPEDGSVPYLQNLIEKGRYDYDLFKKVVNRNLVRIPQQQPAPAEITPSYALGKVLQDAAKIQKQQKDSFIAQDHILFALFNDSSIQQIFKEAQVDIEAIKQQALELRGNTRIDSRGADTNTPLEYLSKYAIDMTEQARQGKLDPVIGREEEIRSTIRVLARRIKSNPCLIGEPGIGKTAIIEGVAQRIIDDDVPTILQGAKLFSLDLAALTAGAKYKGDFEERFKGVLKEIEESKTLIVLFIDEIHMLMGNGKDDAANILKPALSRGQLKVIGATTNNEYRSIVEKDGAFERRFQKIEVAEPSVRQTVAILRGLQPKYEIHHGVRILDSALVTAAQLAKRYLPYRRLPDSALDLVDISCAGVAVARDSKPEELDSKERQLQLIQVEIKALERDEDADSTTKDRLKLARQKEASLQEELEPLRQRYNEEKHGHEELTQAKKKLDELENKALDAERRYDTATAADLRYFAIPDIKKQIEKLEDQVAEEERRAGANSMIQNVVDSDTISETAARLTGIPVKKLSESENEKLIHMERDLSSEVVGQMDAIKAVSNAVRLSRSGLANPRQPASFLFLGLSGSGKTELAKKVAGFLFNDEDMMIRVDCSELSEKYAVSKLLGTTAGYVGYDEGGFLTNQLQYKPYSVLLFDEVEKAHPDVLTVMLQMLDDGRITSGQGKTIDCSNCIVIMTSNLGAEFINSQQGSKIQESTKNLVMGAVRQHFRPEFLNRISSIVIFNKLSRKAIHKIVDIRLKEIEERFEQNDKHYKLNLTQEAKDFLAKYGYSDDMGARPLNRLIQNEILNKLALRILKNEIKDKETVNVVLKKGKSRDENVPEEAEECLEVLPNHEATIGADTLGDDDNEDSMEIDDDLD

[4] = target: CtHsp104 catalytic inactive double Walker A mutant (Chaetomium thermophilum); assay: SEC; SEC profiles with elution volumes of marker proteins
[5] = target: CtHsp104 double Walker B mutant (Chaetomium thermophilum); assay: as above
[6] = target: Hsp104 disaggregase from Chaetomium thermophilum, wild type (Chaetomium thermophilum); assay: as above

T1 sequence (G0S4G4 entry or part of it D295A/E296A): as the sequence (G0S4G4 entry or part of it) above, with D295A, E296A counted along it

Compound: Nc1ncnc2c1ncn2[C@@H]1O[C@H](COP(=O)(O)OP(=O)(O)O)[C@@H](O)[C@H]1O [ADP]
- X-ray crystal structure, 3.7 Å [1]: The crystal structure of the double Walker-B mutant in complex with ADP was determined

Compound: Nc1ncnc2c1ncn2[C@@H]1O[C@H](COP(=O)(O)OP(=O)(O)OP(=O)(O)O)[C@@H](O)[C@H]1O [ATP]
- coupled ATPase assay (pyruvate kinase / lactate dehydrogenase) [2]: ATPase activity was determined by a coupled enzymatic reaction
- coupled ATPase assay (pyruvate kinase / lactate dehydrogenase) [3]: ATPase and GFP unfolding activity of wt and ΔPS1 mutants of Ct and ScHsp104

Compound: CtHsp104 catalytic inactive double Walker A mutant (natural protein)
- stoichiometry N [4]: 6

Compound: CtHsp104 double Walker B mutant (natural protein)
- stoichiometry N [5]: 6

Compound: Hsp104 disaggregase from Chaetomium thermophilum, wild type (natural protein)
- stoichiometry N [6]: 6

Source: publication PMC5130295, “Structural basis for the disaggregase activity and regulation of Hsp104” (eLife, 2016)
